Series [1] deals with T1, Human recombinant PDE2A (hPDE2A) (Homo sapiens, UniProt O00408).
T1 construct: His tag (inferred from metal chelate purification); made in house; host or cells: Sf9 insect cells (baculovirus)
The experiment in a line: In vitro assay PDE2A (SPA, 3H-cGMP hydrolysis). In kind it is biochemical. Conditions: for Emax: read-out: hPDE2A Emax.

In series [2] the target is T2, Human recombinant PDE3A (hPDE3A) (Homo sapiens, UniProt Q14432).
T2 construct: purchased Scottish Biomedical; host or cells: Sf9 insect cells
Briefly: In vitro assay PDE3A (SPA, 3H-cAMP hydrolysis).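 As to all read-outs here: the method names PDE3A and the table heading PDE3B.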 As to conditions: for IC50: hPDE3B pIC50, read-out: pIC50 (converted); for Emax: read-out: hPDE3B Emax, read-out: Emax. In kind it is biochemical. In short, it runs like this:
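Human PDE3A, cloned from brain, as partially purified Sf9 lysate. Substrate 0.4 μM cAMP plus [3H]-cAMP (2.4 μCi/ml final) in 50 mM Tris pH 7.8, 8.3 mM MgCl2, 1.7 mM EGTA, 60 min at room temperature, 1% DMSO final. Hydrolysis read by SPA scintillation counting against no-enzyme blanks and DMSO controls.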

Series [3] addresses T3, Human recombinant PDE10A (hPDE10A) (Homo sapiens, UniProt Q9Y233).
T3 construct: His tag (inferred from metal chelate purification); made in house; host or cells: Sf9 insect cells (baculovirus)
The experiment in a line: In vitro assay PDE10A, human clone (SPA, 3H-cAMP hydrolysis). In kind it is biochemical. In short, it runs like this:
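Human recombinant PDE10A was expressed in Sf9 cells via baculovirus and incubated with compound in 50 mM Tris pH 7.8, 8.3 mM MgCl2, 1.7 mM EGTA. Substrate was 60 nM cAMP plus 0.008 μCi 3H-cAMP for 60 min at room temperature, read by SPA scintillation counting. Controls used 1% DMSO, and blanks omitted enzyme.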

The target in the next series is T4, PDE2A (Rattus norvegicus, UniProt Q01062).
T4 construct: Twenty μm-thick striatal sections were cut; from tissue; host or cells: rat brain, striatal sections
T4 sequence (Q01062 1-928): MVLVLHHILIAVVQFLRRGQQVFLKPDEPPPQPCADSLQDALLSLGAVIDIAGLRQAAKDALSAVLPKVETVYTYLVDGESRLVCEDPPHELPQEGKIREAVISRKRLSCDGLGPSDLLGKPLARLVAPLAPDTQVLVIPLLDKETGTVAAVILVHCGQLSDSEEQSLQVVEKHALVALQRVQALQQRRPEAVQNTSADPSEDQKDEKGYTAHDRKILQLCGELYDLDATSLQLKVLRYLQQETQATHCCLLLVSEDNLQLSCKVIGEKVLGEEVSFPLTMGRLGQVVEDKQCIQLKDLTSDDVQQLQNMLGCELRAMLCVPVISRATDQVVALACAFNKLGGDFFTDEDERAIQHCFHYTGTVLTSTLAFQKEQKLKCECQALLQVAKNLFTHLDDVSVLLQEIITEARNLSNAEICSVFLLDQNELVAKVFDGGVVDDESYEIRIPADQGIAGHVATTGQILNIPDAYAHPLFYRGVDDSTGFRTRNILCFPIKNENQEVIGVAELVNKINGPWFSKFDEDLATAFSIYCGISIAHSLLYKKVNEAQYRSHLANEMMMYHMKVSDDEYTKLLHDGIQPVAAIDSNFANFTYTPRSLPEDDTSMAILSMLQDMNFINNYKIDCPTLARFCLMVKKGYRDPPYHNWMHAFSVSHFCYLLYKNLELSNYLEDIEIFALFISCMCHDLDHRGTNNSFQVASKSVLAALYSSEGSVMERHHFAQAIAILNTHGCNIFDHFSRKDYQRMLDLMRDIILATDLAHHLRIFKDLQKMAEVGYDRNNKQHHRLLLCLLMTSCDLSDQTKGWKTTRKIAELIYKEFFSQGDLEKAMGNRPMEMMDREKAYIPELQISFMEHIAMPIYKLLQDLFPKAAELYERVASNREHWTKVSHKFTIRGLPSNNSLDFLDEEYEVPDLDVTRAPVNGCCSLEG
The experiment in a line: PDE2 occupancy by test compounds, ex-vivo autoradiography with [3H]B-17a. In kind it is in vivo, Male Wistar rats. As to conditions: for ED50: read-out: PDE Occupancy ED50; for receptor occupancy at 10 mg/kg: percentage receptor occupancy, ex-vivo autoradiography, striatum.

Setting [4] is: read-out: hPDE2A pIC50 (converted).
[5] abbreviates: human clone (h), default, read-out: hPDE10A2 Emax.
Setting [6] is: human clone (h), default, read-out: hPDE10A2 pIC50 (converted).
[7] abbreviates: human clone by default (no (r) mark), read-out: hPDE10A2 or rPDE10A2 Emax.
[8] abbreviates: human clone by default (no (r) mark), read-out: hPDE10A2 or rPDE10A2 pIC50 (converted).
The mark [9] stands for this setting: route PO (oral), drug dose producing 50% receptor occupancy.

Where two headings read alike, the source gives them in different places.

T3 sequence (Q9Y233 267-1055): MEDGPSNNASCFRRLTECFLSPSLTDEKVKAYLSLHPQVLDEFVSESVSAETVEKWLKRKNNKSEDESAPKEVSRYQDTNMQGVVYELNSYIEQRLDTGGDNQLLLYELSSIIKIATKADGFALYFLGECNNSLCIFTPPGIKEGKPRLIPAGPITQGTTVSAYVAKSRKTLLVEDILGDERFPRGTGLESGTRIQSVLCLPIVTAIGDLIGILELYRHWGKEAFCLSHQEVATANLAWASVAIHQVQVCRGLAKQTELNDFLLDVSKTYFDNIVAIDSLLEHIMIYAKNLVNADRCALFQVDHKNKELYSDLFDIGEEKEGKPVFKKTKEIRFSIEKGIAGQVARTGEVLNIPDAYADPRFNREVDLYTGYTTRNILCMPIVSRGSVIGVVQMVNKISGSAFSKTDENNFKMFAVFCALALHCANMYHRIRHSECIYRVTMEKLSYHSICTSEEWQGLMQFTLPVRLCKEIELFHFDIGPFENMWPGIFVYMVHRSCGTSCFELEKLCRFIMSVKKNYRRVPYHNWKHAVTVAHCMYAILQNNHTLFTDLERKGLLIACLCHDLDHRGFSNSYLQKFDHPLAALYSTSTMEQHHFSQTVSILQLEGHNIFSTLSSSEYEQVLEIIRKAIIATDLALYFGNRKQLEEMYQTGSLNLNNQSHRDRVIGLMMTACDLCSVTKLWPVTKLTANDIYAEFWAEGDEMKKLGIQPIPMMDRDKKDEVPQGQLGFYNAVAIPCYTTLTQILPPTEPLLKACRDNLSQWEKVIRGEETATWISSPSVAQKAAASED
T2 sequence (Q14432 whole entry): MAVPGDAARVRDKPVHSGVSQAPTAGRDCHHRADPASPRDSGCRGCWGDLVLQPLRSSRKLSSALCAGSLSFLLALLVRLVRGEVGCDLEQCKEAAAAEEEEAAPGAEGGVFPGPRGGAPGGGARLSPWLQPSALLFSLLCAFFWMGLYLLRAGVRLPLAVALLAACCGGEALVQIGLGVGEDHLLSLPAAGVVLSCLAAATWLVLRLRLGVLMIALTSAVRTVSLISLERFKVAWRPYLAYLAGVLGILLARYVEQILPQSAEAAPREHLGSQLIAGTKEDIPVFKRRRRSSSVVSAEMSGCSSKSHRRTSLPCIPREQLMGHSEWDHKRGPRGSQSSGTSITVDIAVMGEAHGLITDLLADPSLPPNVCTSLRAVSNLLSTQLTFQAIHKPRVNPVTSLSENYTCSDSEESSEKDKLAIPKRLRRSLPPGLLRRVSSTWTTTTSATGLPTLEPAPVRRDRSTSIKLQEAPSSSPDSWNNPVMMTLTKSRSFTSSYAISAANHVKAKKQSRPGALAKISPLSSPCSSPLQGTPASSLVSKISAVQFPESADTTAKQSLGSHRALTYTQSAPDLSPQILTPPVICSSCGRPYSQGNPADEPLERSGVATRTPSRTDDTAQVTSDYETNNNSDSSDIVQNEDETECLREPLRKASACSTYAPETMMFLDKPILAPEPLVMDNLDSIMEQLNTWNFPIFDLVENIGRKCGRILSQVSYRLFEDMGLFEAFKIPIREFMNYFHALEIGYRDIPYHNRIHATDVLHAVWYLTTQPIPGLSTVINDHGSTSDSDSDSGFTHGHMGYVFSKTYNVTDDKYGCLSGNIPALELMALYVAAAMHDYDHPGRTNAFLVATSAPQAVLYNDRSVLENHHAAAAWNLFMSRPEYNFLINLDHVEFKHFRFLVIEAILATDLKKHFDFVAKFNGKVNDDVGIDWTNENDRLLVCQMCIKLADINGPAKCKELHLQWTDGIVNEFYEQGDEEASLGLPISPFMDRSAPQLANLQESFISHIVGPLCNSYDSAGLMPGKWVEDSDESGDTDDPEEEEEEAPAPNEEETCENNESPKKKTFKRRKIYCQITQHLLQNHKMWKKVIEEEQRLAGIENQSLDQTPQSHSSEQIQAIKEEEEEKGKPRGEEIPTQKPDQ
T1 sequence (O00408 whole entry): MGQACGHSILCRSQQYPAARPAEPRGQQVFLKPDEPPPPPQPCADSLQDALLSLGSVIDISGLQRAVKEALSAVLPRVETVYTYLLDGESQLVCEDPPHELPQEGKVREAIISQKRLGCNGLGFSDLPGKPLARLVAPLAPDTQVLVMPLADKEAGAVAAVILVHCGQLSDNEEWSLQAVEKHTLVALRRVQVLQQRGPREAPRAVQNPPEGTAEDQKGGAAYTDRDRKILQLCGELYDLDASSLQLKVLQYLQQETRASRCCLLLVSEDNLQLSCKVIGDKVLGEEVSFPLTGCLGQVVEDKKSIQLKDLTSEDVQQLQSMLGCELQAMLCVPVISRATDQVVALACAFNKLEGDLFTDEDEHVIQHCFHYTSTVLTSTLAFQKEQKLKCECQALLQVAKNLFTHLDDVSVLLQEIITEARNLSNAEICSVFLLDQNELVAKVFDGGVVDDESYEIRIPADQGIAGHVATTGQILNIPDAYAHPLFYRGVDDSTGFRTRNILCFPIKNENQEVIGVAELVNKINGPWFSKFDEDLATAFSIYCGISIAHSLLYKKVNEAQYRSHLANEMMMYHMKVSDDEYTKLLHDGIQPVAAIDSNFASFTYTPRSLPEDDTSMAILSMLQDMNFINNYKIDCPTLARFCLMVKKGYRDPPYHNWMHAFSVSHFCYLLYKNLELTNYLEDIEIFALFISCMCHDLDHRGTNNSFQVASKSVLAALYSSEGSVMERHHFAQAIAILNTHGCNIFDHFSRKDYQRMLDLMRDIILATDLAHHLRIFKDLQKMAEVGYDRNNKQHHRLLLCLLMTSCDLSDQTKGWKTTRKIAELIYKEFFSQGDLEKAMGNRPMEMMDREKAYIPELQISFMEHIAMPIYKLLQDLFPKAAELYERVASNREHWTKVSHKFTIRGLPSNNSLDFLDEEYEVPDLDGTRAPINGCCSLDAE

Usually Emax stands for the greatest response seen or fitted, relative to the assay's reference. A word on the ED50: it is the dose that gives a 50% effect, or the effect in half of the subjects. The melting point is the temperature, or range, at which the solid turns liquid. `C[C@@H]1CCN(C(=O)c2ccc3ncsc3c2)C[C@H]1c1cc(C(F)F)nc2ncnn12` [Compound 228] returned a melting point of 178.21 °C. Further, the IC50 in series [1] (human recombinant PDE2A, 10 μM cGMP substrate, read-out: hPDE2A pIC50 (converted)) was 0.224 nM. Further, in series [1] (human recombinant PDE2A), the Emax came to 100%. Further, the Emax in series [1] is 100%. Besides, the IC50 in series [1] (setting [4]) is 0.224 nM. Also, in series [2], the IC50 is 1200 nM and the Emax is 91%. Also, the maximal effect (Emax) in series [3] (setting [5]) was found to be 100%. Moreover, in series [3] (setting [6]), the IC50 is 17 nM. Further, in series [3] (setting [7]), the Emax stood at 100%. The IC50 in series [3] (setting [8]) was 17 nM. In addition, at PDE2A (setting [9]), the median effective dose (ED50) came to 1.5 mg/kg. Moreover, the receptor occupancy at 10 mg/kg on PDE2A (sc, route SC (subcutaneous)) turned out to be 92%.
`Cc1cc([C@@H]2CN(C(=O)c3cc(Cl)ncc3C(F)(F)F)CC[C@H]2C)n2ncnc2n1` [Compound 270] displayed a melting point of 213.25 °C. Further, the Emax in series [1] was 100%. Moreover, the IC50 in series [1] (setting [4]) is 2.34 nM. Also, in series [2], the IC50 was above 10000 nM and the maximum response (Emax) turned out to be 29%. Moreover, in series [3] (setting [5]), the Emax worked out at 96%. In series [3] (setting [6]), the IC50 was 269 nM. The maximal effect (Emax) in series [3] (setting [7]) was found to be 96%. Also, the IC50 in series [3] (setting [8]) was 269 nM. Moreover, at PDE2A (po, route PO (oral)), the receptor occupancy at 10 mg/kg came to 6%.
With `Cc1cc(C(=O)N2CC[C@@H](C)[C@H](c3cc(C(F)F)nc4ncnn34)C2)cc(OC(F)F)n1` [Compound 281], the melting point amounted to 114.59 °C. Besides, in series [1], the Emax worked out at 100%. Besides, in series [1] (setting [4]), the IC50 was 1.66 nM. In addition, in series [2], the IC50 was 2240 nM and the Emax is 87%. The Emax in series [3] (setting [7]) worked out at 99%. Moreover, in series [3] (setting [8]), the IC50 is 110 nM. The receptor occupancy at 10 mg/kg on PDE2A (po, route PO (oral)) was 57%. In addition, the ED50 on PDE2A (setting [9]) was 4.2 mg/kg.
The compound `COc1nc(C)cc(C(=O)N2CC[C@@H](C)[C@H](c3cc(C(F)F)nc4ncnn34)C2)c1F` [Compound 282] yielded a melting point of 193.33 °C. Also, in series [1], the Emax is 100%. The IC50 in series [1] (setting [4]) is 2.88 nM. In series [2], the IC50 is 1700 nM and the Emax is 88%. Further, the maximal effect (Emax) in series [3] (setting [7]) worked out at 98%. Moreover, the IC50 in series [3] (setting [8]) was 275 nM. In addition, the receptor occupancy at 10 mg/kg on PDE2A (po, route PO (oral)) was 47%. In addition, on PDE2A (setting [9]), the ED50 amounted to 11.8 mg/kg.
For the compound `Cn1ccc2cc(C(=O)N3[C@H]4CC[C@H](c5cc(C(F)F)nc6ncnn56)[C@@H]3CC4)ccc21` [Compound 295], the melting point worked out at 178.8 °C. In series [1], the Emax was 101%. Further, in series [1] (setting [4]), the IC50 was 0.49 nM. For the same compound, in series [2], the IC50 is 977 nM and the maximal response (Emax) stood at 94%. Moreover, in series [3] (setting [7]), the Emax is 98%. The IC50 in series [3] (setting [8]) is 245 nM. Moreover, on PDE2A (route PO (oral)), the receptor occupancy at 10 mg/kg came to 71%. In addition, on PDE2A (po), the ED50 came to 5.63 mg/kg.
`O=C(c1cnc2c(Cl)cccc2c1)N1[C@H]2CC[C@H](c3cc(C(F)F)nc4ncnn34)[C@@H]1CC2` [Compound 310] had a melting point of 240.9 °C. Further, the maximal effect (Emax) in series [1] is 100%. Further, in series [1] (setting [4]), the IC50 is 1.41 nM. In addition, in series [2], the IC50 is 3890 nM and the Emax is 78%. Further, the Emax in series [3] (setting [7]) was determined as 95%. The IC50 in series [3] (setting [8]) was 398 nM. Besides, at PDE2A (route PO (oral)), the receptor occupancy at 10 mg/kg came out at 52%. On PDE2A (po), the ED50 amounted to 9.6 mg/kg.
In the case of `Cc1cc(C(=O)N2CC[C@@H](C)[C@H](c3cc(C(F)F)nc4ncnn34)C2)cc(C(F)F)n1` [Compound 321], the melting point is 137.5 °C. The IC50 in series [1] (hPDE2A pIC50) is 2.19 nM. For the same compound, the maximal effect (Emax) in series [1] stood at 101%. Besides, in series [2], the IC50 is 8130 nM and the maximal effect (Emax) turned out to be 45%. Further, the maximum response (Emax) in series [3] (setting [7]) came to 97%. For the same compound, the IC50 in series [3] (setting [8]) was 309 nM. The receptor occupancy at 10 mg/kg at PDE2A (po, route PO (oral)) was found to be 73%. Further, the 50% effective dose (ED50) at PDE2A (po) was 3.37 mg/kg.
`C[C@@H]1CCN(C(=O)c2cn(C)c3ccccc23)C[C@H]1c1cc(C(F)F)nc2ncnn12` [Compound 328] showed a melting point of 247.48 °C. The maximal response (Emax) in series [1] amounted to 100%. For the same compound, the IC50 in series [1] (setting [4]) is 0.631 nM. Besides, in series [2], the IC50 was 1480 nM and the maximal response (Emax) came out at 90%. In series [3] (setting [7]), the Emax stood at 100%. For the same compound, the IC50 in series [3] (setting [8]) is 61.7 nM. The receptor occupancy at 10 mg/kg on PDE2A (po, route PO (oral)) is -18%.

(Values after patent US10947242B2, “[1,2,4]triazolo[1,5and#8208;A]pyrimidine compounds as PDE2 inhibitors” (Janssen Pharmaceutica NV, priority 2016, dated 2021).)
